From patent publication US20080188540A1, “PHARMACEUTICAL COMPOSITIONS CONTAINING SUBSTITUTED INDOLE ACID DERIVATIVES AS INHIBITORS OF PLASMINOGEN ACTIVATOR INHIBITOR-1 (PAI-1)” (Wyeth, priority 2007, published 2008)
≈ marks a conversion by molar mass, not a printed value. Where “and” joins values, the source holds several entries; their conditions need not be identical. Identical values can stand only once. Entries after “also recorded” stand apart in the source; their conditions may differ. Like-named read-outs stand apart in the source and are kept apart here.

Columns and labels:
[1] = Solubility profile (free acid in HCl/NaOH solution, centrifugation, supernatant assayed by HPLC); format: physicochemical
Source text: In some embodiments, the [1-(4-tert-Butylbenzyl)-5-(3-methylphenyl)-1H-indol-3-yl](oxo)acetic acid used with the composition of the invention is micronized.

[2] = Bioavailability of three formulations, single oral gavage dose, plasma pharmacokinetics; format: in vivo; conditions: Formula C, fasted male dogs, individual dogs and Mean; for Plasma concentration: oral 300 mg/kg
Protocol: Three formulations were evaluated for the bioavilability of [1-(4-tert-butylbenzyl)-5-(3-methylphenyl)-1h-indol-3-yl](oxo)acetic acid in male dogs. Following a single oral (gavage, 300 mg/kg) dose of [1-(4-tert-butylbenzyl)-5-(3-methylphenyl)-1h-indol-3-yl](oxo)acetic acid, blood samples were drawn at 0 (predose), 0.25, 0.5, 1, 2, 3, 4, 6, 8, 10, 12, 24 and 30 hours. The pharmacokinetic parameters, AUC, Cmax, tmax and t1/2, were determined for each dog, and descriptive statistics were calculated for comparison among formulations.
Individual plasma concentrations over time after dosing Formula C are tabulated and plotted in Table 2 and FIG. 2 respectively.

SMILES: Cc1cccc(-c2ccc3c(c2)c(C(=O)C(=O)O)cn3Cc2ccc(C(C)(C)C)cc2)c1 [[1-(4-tert-Butylbenzyl)-5-(3-methylphenyl)-1H-indol-3-yl](oxo)acetic acid]
- solubility enhancement ([1]; 2% Tween80/0.5% methylcellulose solution versus water): 26.000 fold
- solubility ([1]; 2% Tween80/0.5% methylcellulose solution, pH 3.5, aqueous with cosolvent or surfactant or cyclodextrin, read-out: solubility): 580 µg/mL (≈ 1360 µM)
- solubility ([1]; aqueous HCl/NaOH solution, aqueous buffer, thermodynamic from solid, in the ionized form (so in the source), read-out: aqueous solubility): ~0.25 µg/mL (≈ 0.588 µM)
- pH-solubility profile ([1]; free acid in HCl/NaOH solution, 24 hours equilibration (2 hours for pH<4)): Above pH 4, solubility increases with increasing pH up to pH˜8; also recorded: Above pH 8, solubility decreases due to precipitation of the sodium salt
- aqueous solubility ([1]; upon ionization in aqueous media): approximately 24 uG/mL
- solubility at 24 h ([1]; water, thermodynamic from solid, neutral pH 6.9): 24 µg/mL (≈ 56.4 µM)
- Plasma concentration ([2]; 0.25 hours after dose): 2200 ng/mL and 3390 ng/mL and 3290 ng/mL
- Plasma concentration ([2]; 0.5 hours after dose): 7500 ng/mL and 10400 ng/mL and 9190 ng/mL
- Plasma concentration ([2]; 1 hour after dose): 18100 ng/mL and 21100 ng/mL and 20000 ng/mL
- Plasma concentration ([2]; 2 hours after dose): 26300 ng/mL and 34700 ng/mL and 34100 ng/mL
- Plasma concentration ([2]; 4 hours after dose): 29300 ng/mL and 31900 ng/mL and 46600 ng/mL
- Plasma concentration ([2]; 6 hours after dose): 26900 ng/mL and 30300 ng/mL and 48000 ng/mL
- Plasma concentration ([2]; 8 hours after dose): 26500 ng/mL and 24000 ng/mL and 37600 ng/mL
- Plasma concentration ([2]; 10 hours after dose): 25300 ng/mL and 40100 ng/mL and 15900 ng/mL and 28200 ng/mL
- Plasma concentration ([2]; 12 hours after dose): 19700 ng/mL and 43600 ng/mL and 12400 ng/mL and 22300 ng/mL
- Plasma concentration ([2]; 24 hours after dose): 4720 ng/mL and 25900 ng/mL and 2410 ng/mL and 21900 ng/mL
- Plasma concentration ([2]; 30 hours after dose): 2610 ng/mL and 15200 ng/mL and 1240 ng/mL and 10600 ng/mL
- concentration at 0.25 h ([2]; male, dog, in vivo, po, 300 mg/kg, 0.25 hours after dose): 2330 ng/mL
- concentration at 0.5 h ([2]; male, dog, in vivo, po, 300 mg/kg, 0.5 hours after dose): 8190 ng/mL
- concentration at 1 h ([2]; male, dog, in vivo, po, 300 mg/kg, 1 hour after dose): 16700 ng/mL
- concentration at 2 h ([2]; male, dog, in vivo, po, 300 mg/kg, 2 hours after dose): 30000 ng/mL
- concentration at 4 h ([2]; male, dog, in vivo, po, 300 mg/kg, 4 hours after dose): 43000 ng/mL
- concentration at 6 h ([2]; male, dog, in vivo, po, 300 mg/kg, 6 hours after dose): 39400 ng/mL
- concentration at 8 h ([2]; male, dog, in vivo, po, 300 mg/kg, 8 hours after dose): 31900 ng/mL
